One test relates to Weaver mutant mouse. Description: Weaver mutant mouse (locomotor activity). Conditions: in vivo. From the text: Typical genetic models in mutant animals are the Campus Syndrome in the Pietrain pig according to A. Richter et al. (Exp. Neurology, 1995; 134: 205-213) or the Weaver mutant mouse according to J. R. Simon and B. Ghetti (Mol. Neurobiol., 1994; 9: 183-189). In the Campus Syndrome model, these mutant pigs show a high-frequency tremor when standing and during locomotion, but not while lying at rest. Assessment of tremor is made by accelerometric recording. In the Weaver mutant mouse, degenerative cerebellar atrophy is […] in association with tremor, gait instability, and toppling over the sides after a few steps.

Test [1] has as its system reserpinized rat or mouse. The experiment in a line: reserpinized rat or mouse (akinesia). The class given is in vivo. Conditions: 24 h after reserpine. How it is done:
A typical animal model is the reserpinized rat or mouse (e.g. M. S. Starr and B. S. Starr, J. Neural Transm.—Park. Dis. Dement. Sect., 1994; 7: 133-142; M. Gossel et al., J. Neural Transm.—Park. Dis. Dement. Sect., 1995; 10: 27-39; N. R. Hughes et al., Mov. Disord., 1998; 13: 228-233). Reserpine is a potent depleter of monoamines and produces nearly complete akinesia in both species. Prominent 24 h after application, the distance travelled and the time active is nearly zero as measured in conventional activity meters.

Another test deals with cataleptic rat. The experiment in a line: reversal of catalepsy in rats. In kind it is in vivo. Conditions: Rattus norvegicus, sc, subcutaneous, read-out: ED50 (calculated dose to reverse catalepsy by 50%). The method, then: R represents hydrogen or a hydroxyl protecting group, and their optical isomers and pharmaceutically acceptable salts, in particular 2-({[5-(4-fluorophenyl)-pyridin-3ylmethyl]-amino}-methyl)-chroman-4-ol or an optical isomer or a physiologically acceptable salt or solvate thereof, excert an extraordinary potency in reversing catalepsy. Extrapyramidal motor side effects in e.g. rodents are measured by the ability of a drug to induce catalepsy. Catalepsy is defined as a state where an animal continues to remain in an unnormal (nonphysiological ‘uncomfortable’) posture for a long time (e.g.: M. E. Stanley and S. D. Glick, Neuropharmacology, 1996; 15: 393-394; C. J. E. Niemegeers and P. Janssen, Life Sci., 1979, […]). For example, if a hindpaw of a rat is placed on an elevated level, e.g. a platform elevated 3 cm above ground level, a normal rat immediately withdraws the hindpaw from the platform to the ground level. A cataleptic rat remains in this unnatural posture even for minutes.

For test [2], the system named is rats. Description: posthypoxic myoclonus in rats. Conditions: rat, in vivo. The method, then: A typical animal model for myoclonus is myoclonus induced by an acute hypoxic episode according to D. D. Truong et al., Mov. Dsiord., 1994; 9: 201-206). In this model of posthypoxic myoclonus, rats undergo a cardiac arrest for 8 minutes and are resuscitated thereafter. Myoclonic jerks occur spontaneously but can be provoked by auditory stimulation, too, worsening over the days following cardiac arrest.

The subject of test [3] is Parkinsonian cynomolgus monkey. Description: MPTP Parkinsonian cynomolgus monkey, l-dopa-induced adverse effects. The class given is in vivo. To be noted: MPTP monkeys chronically treated with l-dopa. The method, then:
Treatment of adverse effects of conventional anti-Parkinsonian drugs as defined above are determined in a modification of the animal model of the Parkinsonian cynomolgus monkey according to P. J. Blanchet et al., Exp. Neurology 1998; 153: 214-222. Monkeys render parkinsonian by repeated injections of 1-methyl-4-phenyl-1,2,3,6-tetrahydropyridine (MPTP). The Parkinsonian monkeys are chronically treated with the standard 1-dopa therapy according to P. J. Blanchet et al., Mov. Disord., 1998; 13: 798-802. Longterm treatment with l-dopa induces extrapyramidal motor side effects and psychotic states which are both qualitatively and quantitatively, assessed by the Abnormal Involuntary Movement Scale (P. J. Blanchet et al., Mov. Disord. 1998; 13: 798-802) for different body parts (face, neck, trunk, each limb) and by rating for psychotic states by observing the monkey's attention, reactivity and mobility.

A further test concerns the target 5-HT1A receptor (UniProt P19327). Description: 5-HT1A receptor radioligand binding. To be noted: in vitro radioligand binding; read-out: IC50, binding to 5HT1A receptors. An excerpt:
(§1) The affinity to the 5-HT1A receptor can be determined in vitro by radioligand binding experiments according to Cossery J M et al. (Eur. J. Pharmacol. 1987; 140: 143-155). The functional agonistic properties at the 5HT1A receptor can be determined in vitro in the GTP-gamma-S test (Newman-Tancredi A et al., Eur. J. Pharmacol.1996; 307: 107-111). A standard in vivo animal model to test for the 5HT1A agonistic properties is the ultrasonic vocalization test in rats (e.g. deFry J et al., Eur. J. Pharmacol. 1993; 249: 331-339; Sanchez C, Behav. Pharmacol. 1993; 4: 269-277). The affinity for dopamine D4 receptors can be determined in vitro by radioligand binding experiments according to Klokow M et al. (Drug Res. 1986; 36: 197-200).

In a further test the target is dopamine D4 receptors (Homo sapiens, UniProt P21917). The experiment in a line: dopamine D4 receptor radioligand binding. Conditions: in vitro radioligand binding.
Chain of dopamine D4 receptors (P21917 whole entry): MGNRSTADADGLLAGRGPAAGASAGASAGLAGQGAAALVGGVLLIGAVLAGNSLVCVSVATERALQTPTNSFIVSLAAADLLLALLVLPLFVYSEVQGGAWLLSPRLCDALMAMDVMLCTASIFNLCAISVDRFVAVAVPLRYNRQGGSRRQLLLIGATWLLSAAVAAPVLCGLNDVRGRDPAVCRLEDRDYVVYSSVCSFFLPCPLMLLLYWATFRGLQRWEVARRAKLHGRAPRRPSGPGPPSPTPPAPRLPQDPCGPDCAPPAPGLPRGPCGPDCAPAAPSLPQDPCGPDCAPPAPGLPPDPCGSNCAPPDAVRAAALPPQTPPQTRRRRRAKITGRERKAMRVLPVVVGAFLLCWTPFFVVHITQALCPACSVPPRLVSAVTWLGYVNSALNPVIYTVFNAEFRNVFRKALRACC
From the text: as §1

The target of another test is D2 receptors (Homo sapiens, UniProt P14416). Description: binding / inhibitory effect at dopamine D2 receptor.
Chain of D2 receptors (P14416 whole entry): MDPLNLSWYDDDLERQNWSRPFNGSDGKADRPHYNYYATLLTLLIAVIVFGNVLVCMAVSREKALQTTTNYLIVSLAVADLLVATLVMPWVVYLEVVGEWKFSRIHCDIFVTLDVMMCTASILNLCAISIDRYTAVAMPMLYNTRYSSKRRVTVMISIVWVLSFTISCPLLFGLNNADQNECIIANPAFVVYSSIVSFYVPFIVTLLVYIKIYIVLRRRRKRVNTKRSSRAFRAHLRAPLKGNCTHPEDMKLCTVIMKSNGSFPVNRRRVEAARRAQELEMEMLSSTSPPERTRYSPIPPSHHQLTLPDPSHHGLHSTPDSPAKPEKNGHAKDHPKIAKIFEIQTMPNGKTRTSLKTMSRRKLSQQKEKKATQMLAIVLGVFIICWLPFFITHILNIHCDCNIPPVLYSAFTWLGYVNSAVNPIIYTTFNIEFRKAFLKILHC
Test [4] has as its system rats. The experiment in a line: systemic 3-nitropropionic acid (3-NP) model in rats. In kind it is in vivo, rat. The method, then: A typical animal model is the systemic 3-nitropropionic acid (3-NP) model in rats according to C. V. Borlongan et al., Brain Res., 1995; 697: 254-257. Rats are treated with injections of the selective striatal neurotoxin 3-NP i.p. every fourth day (C. V. Borlongan et al., Brain Res. Protocols, 1997; 1: 253-257). After two injections of 3-NP, rats display nocturnal hyperactivity reflecting symptoms of early Huntington's disease, whereas rats treated with four injections of 3-NP display nocturnal akinesia (hypoactivity) reflecting symptoms of late Huntington's disease. Nocturnal activity is automatically measured in conventional acitivity cages by infrared beams. (2R,4R)-2-({[5-(4-fluorophenyl)-pyridin-3ylmethyl]-amino}-methyl)-chroman-4-ol or a pharmaceutical acceptable salt or solvate thereof reduce both the nocturnal hyperactivity and akinesia.

Test [5] deals with oxotremorine-induced tremor. The experiment in a line: oxotremorine-induced tremor. In kind it is in vivo. Conditions: rating scale. The method, then: A typical animal model for drug-induced tremors is the oxotremorine-induced tremor (e.g. H. Hallberg and O. Almgren, Acta Physiol. Scand., 1987; 129: 407-13; J. G. Clement and W. R. Dyck, J. Pharmacol. Meth., 1989; 22: 25-36). Oxotremorine induces tremor which is measured by a rating scale.

The subject of test [6] is patients with cervical dystonia (spasmodic torticollis). The experiment in a line: double-blind study in cervical dystonia (TWSTRS). The class given is in vivo, human. To be noted: 2.5 mg to 20 mg b.i.d.

SMILES strings stand for the structures.

Consider `O[C@@H]1C[C@H](CNCc2cncc(-c3ccc(F)cc3)c2)Oc2ccccc21` [(2R,4R)-2-({[5-(4-fluorophenyl)-pyridin-3ylmethyl]-amino}-methyl)-chroman-4-ol], for which the locomotor activity entry with Weaver mutant mouse is “enhance locomotor activity”. Moreover, the “akinesia (distance travelled and time active)” value in test [1] is on record as “dose-dependently reduce akinesia”. In addition, in the test with cataleptic rat, the ED50 is around 2 mg/kg. In addition, the “number of spontaneous and auditory-evoked myoclonic jerks” value in the test on rats [2] was “dose-dependently reduce the number of spontaneous and autitory-evoked myoclonic jerks”. In addition, in [3], the “choreiform and dystonic dyskinesias (Abnormal Involuntary Movement Scale)” value is “reduce overall choreiform dyskinesias and dystonic dyskinesias”; the psychotic states entry is listed as “reduce”. Moreover, the IC50 at 5-HT1A receptor was determined as 0.01 µM. The IC50 at dopamine D4 receptors was found to be 0.012 µM. Further, the “binding to D2 receptors” value on D2 receptors was “no or only a very weak binding”. The nocturnal akinesia result in the test with rats [4] (after four injections of 3-NP) is “reduce”. Also, in the test on rats [4] (after two injections of 3-NP), the nocturnal hyperactivity entry is “reduce”. The oxotremorine-induced tremors result in [5] is recorded as “inhibit oxotremorine-induced tremors”. The TWSTRS scores entry in test [6] is listed as “significant improvement”.

The ED50 is the midpoint of the dose-response relation. In general, IC50 refers to the point on the concentration scale where inhibition reaches its midpoint.

Values taken from patent publication US7618988B2, “Use of substituted aminomethyl chromans” (Merck Patentgesellschaft, priority 2001, dated 2009).
